Earlier results, collected in patent publication US20110189281A1, “TELMISARTAN AND HYDROCHLOROTHIAZIDE COMBINATION THERAPY” (BOEHRINGER INGELHEIM INTERNATIONAL GMBH, priority 2004, published 2011).

Conditions: physiological pH range of the gastrointestinal tract, pH 1 to 7; free acid form

Solubility in aqueous systems: very poor solubility
Compound: CCCc1nc2c(C)cc(-c3nc4ccccc4n3C)cc2n1Cc1ccc(-c2ccccc2C(=O)O)cc1 [Telmisartan, 4′-[(1,4′-dimethyl-2′-propyl-[2,6′-bi-1H-benzimidazol]-1′-yl)methyl]-[1,1′-biphenyl]-2-carboxylic acid]
